Columns and labels:
Type in all cases: cell-based
AHK3 = target: T1, AHK3 (Arabidopsis thaliana, UniProt Q9C5U1); assay: Activation of cytokinin receptor AHK3 in E. coli KMI001 (β-galactosidase reporter); conditions: E. coli KMI001 pSTV28-AHK3, 28 h incubation, n.i. means without interaction
T1 construct: expressed in transfected cells; host or cells: Escherichia coli KMI001, plasmid pSTV28-AHK3
T1 sequence (Q9C5U1 1-1036): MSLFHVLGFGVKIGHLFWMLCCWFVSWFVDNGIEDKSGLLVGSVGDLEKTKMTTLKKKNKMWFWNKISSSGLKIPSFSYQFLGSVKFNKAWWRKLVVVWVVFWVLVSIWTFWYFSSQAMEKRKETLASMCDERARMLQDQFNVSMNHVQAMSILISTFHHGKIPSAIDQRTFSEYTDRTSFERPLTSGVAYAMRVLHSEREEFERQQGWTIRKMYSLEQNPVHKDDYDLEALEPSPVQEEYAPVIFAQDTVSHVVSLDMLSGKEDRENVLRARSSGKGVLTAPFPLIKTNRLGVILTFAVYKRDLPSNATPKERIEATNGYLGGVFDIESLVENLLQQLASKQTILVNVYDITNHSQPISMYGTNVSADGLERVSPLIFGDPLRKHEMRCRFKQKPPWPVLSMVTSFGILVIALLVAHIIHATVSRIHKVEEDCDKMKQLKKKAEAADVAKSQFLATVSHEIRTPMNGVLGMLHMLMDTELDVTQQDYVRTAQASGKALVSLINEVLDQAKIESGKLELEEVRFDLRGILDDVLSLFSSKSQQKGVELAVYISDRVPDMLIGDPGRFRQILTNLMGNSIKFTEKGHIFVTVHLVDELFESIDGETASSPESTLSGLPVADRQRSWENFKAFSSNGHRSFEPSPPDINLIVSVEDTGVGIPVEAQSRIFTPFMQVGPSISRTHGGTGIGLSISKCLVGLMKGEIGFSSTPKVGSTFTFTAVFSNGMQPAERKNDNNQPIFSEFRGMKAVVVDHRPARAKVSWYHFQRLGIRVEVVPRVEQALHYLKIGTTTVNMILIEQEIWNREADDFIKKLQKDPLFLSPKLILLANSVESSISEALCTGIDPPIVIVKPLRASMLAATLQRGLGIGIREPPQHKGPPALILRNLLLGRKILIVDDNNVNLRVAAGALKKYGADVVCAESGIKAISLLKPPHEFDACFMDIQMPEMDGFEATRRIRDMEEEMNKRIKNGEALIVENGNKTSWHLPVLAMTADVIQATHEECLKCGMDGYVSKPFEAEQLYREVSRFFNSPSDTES
Method: (§1) Escherichia coli strains KMI001 harbouring the plasmid pIN-III-AHK4 or pSTV28-AHK3 were grown overnight at 25° C. in M9 media enriched with 0.1% casamino acids to OD600˜1. The preculture was diluted 1:600 in 1 ml M9 medium containing 0.1% casamino acids and 1 μl stock solution of either the tested compound (10^−7 M−5×10^−5 M) or solvent control (DMSO, ethanol, methanol) were added. The cultures were further grown at 25° C. in microtiter plate, 200 μl per well. […] The cultures were centrifuged and 50 μl aliquots of the supernatant were transferred to microtiter plate containing 2 μl 50 mM 4-methyl umbelliferyl galactoside which was subsequently incubated for 1 h at 37° C. The reaction was stopped by adding 100 μl 0.2 M Na2CO3. Fluorescence was measured using a Fluoroscan Ascent (Labsystems, Finland) at the excitation and emission wavelengths of 365 and 460 nm, respectively. The OD600 of remaining culture was determined and β-galactosidase activity was calculated as nmol 4-methylumbelliferone×OD600^−1×h^−1.
(§2) The EC50 value, the compound concentration activating the receptor to 50%, was calculated from the obtained dose response curves. The compound functioning as cytokinin antagonists should not activate cytokinin signalling pathway. The values shown in Table 2 are means of three replicates and the entire test was repeated at least twice.

[1] = tested on: cytokinin-dependent tobacco callus Nicotiana tabacum L. cv. Wisconsin 38; assay: Cytokinin-dependent tobacco callus bioassay; conditions: for activity (%) [10^−6 mol · l^−1 BA = 100%]: at concentration with highest activity, n.a. means inactive; for concentration with highest activity: callus fresh weight after four weeks
Method: Stimulatory effect of newly prepared derivatives was tested using cytokinin-dependent tobacco callus. The cytokinin-dependent tobacco callus Nicotiana tabacum L. cv. Wisconsin 38 was maintained at 25° C. in darkness on modified MS medium, containing per 1 liter: 4 μmol of nicotinic acid, 2.4 μmol of pyridoxine hydrochloride, 1.2 μmol of thiamine, 26.6 μmol of glycine, 1.37 μmol of glutamine, 1.8 μmol of myo-inositol, 30 g of sucrose, 8 g of agar, 5.37 μmol of NAA and 0.5 μmol of the compound tested. Subcultivation was carried out every three weeks. Fourteen days before the bioassay, the callus tissue was transferred to the media without 6-benzylaminopurine. The biological activity was determined from the increase of the fresh callus weight after four weeks of cultivation. Five replicates were prepared for each concentration of the compound tested and the entire test was repeated twice. […] The compounds to be tested were dissolved in dimethylsulfoxide (DMSO) and the solution brought up to 10^−3M with distilled water. This stock solution was further diluted with the respective media used for the biotest to a concentration ranging from 10^−8M to 10^−4M.
From the obtained data, the concentration with the highest activity was selected for each compound tested. Relative activity of the compound at this concentration was calculated (Table 3). The activity obtained for 10^−6 M of the control substance 6-benzylaminopurine was postulated as 100% biological activity. […]

CRE1/AHK4 = target: T2, CRE1/AHK4 (Arabidopsis thaliana, UniProt Q9C5U0); assay: Activation of cytokinin receptor CRE1/AHK4 in E. coli KMI001 (β-galactosidase reporter); conditions: E. coli KMI001 pIN-III-AHK4, 17 h incubation; n.i. means without interaction
T2 construct: expressed in transfected cells; host or cells: Escherichia coli KMI001, plasmid pIN-III-AHK4
Method: as §1, §2

T2 sequence (Q9C5U0 whole entry): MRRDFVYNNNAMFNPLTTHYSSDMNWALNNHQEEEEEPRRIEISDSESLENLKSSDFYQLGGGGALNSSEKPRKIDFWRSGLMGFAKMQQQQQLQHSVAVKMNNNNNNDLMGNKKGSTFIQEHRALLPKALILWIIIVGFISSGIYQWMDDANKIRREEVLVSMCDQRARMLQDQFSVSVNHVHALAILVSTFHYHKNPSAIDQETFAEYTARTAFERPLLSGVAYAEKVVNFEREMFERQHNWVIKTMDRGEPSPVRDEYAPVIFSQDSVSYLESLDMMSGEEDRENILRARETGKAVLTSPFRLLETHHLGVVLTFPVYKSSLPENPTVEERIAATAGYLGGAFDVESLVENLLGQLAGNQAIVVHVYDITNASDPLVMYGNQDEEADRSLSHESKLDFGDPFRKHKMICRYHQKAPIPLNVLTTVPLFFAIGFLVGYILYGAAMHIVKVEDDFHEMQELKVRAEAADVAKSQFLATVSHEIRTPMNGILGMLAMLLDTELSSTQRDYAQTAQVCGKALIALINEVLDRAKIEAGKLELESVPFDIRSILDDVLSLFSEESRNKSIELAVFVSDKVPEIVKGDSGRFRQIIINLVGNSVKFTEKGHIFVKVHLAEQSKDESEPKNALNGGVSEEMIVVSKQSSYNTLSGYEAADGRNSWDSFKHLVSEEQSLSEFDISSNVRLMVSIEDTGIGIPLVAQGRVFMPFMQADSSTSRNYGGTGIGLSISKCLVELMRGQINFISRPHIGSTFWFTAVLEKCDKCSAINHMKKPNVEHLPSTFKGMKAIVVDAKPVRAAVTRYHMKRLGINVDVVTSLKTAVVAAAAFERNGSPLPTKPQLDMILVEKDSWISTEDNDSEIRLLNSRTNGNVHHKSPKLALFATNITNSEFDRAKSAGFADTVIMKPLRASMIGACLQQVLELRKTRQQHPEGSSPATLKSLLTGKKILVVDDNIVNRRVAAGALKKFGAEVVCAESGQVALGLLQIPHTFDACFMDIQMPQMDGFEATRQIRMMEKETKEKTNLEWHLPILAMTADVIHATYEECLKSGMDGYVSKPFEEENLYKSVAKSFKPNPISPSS

Molecule | EC50 AHK3 (activation of cytokinin receptor) (AHK3) | EC50 CRE1/AHK4 (activation of cytokinin receptor) (CRE1/AHK4) | EC50 (AHK3; read-out: EC50 AHK3 (activation of cytokinin receptor)) | activity (%) [10^−6 mol · l^−1 BA = 100%] [1] | concentration with highest activity [1]
6-(2-thio-5-methylbenzylamino)purine [Compound 19] | n.i | n.i. | – | 1.3 (±1) % | 10^−4 mol.l^−1
Cc1cccc(CNc2ncnc3nc[nH]c23)c1N [Compound 1, 6-(2-amino-3-methylbenzylamino)purine] | n.i | n.i. | – | – | –
Cc1ccc(CNc2ncnc3nc[nH]c23)c(N)c1 [Compound 2, 6-(2-amino-4-methylbenzylamino)purine] | n.i | n.i. | – | – | –
CCc1cccc(CNc2ncnc3nc[nH]c23)c1N [Compound 4, 6-(2-amino-3-ethylbenzylamino)purine] | n.i | n.i. | – | – | –
CCc1ccc(N)c(CNc2ncnc3nc[nH]c23)c1 [Compound 5, 6-(2-amino-5-ethylbenzylamino)purine] | n.i | n.i. | – | – | –
Cc1ccc(CNc2ncnc3nc[nH]c23)c(O)c1 [Compound 9, 6-(2-hydroxy-4-methylbenzylamino)purine] | n.i | n.i. | – | – | –
Cc1cccc(O)c1CNc1ncnc2nc[nH]c12 [Compound 11, 6-(2-hydroxy-6-methylbenzylamino)purine] | n.i | n.i. | – | 23 (±5) % | 10^−4 mol.l^−1
CCc1cccc(CNc2ncnc3nc[nH]c23)c1O [Compound 12, 6-(2-hydroxy-3-ethylbenzylamino)purine] | n.i | n.i. | – | – | –
Cc1cccc(CNc2ncnc3nc[nH]c23)c1[N+](=O)[O-] [Compound 15, 6-(2-nitro-3-methylbenzylamino)purine] | – | n.i. | > 100 µM | – | –
Cc1cc(C)c(O)c(CNc2ncnc3nc[nH]c23)c1 [Compound 23, 6-(2-hydroxy-3,5-dimethylbenzylamino)purine] | n.i | n.i. | – | – | –
Cc1ccc(CNc2ncnc3nc[nH]c23)c(O)c1C [Compound 24, 6-(2-hydroxy-3,4-dimethylbenzylamino)purine] | n.i | n.i. | – | – | –

Further lines, with some results ahead:

EC50 AHK3 (activation of cytokinin receptor) (AHK3) | EC50 CRE1/AHK4 (activation of cytokinin receptor) (CRE1/AHK4) | EC50 (AHK3; read-out: EC50 AHK3 (activation of cytokinin receptor)) | Molecule | activity (%) [10^−6 mol · l^−1 BA = 100%] [1] | concentration with highest activity [1]
n.i | n.i. | – | Cc1ccc(N)c(CNc2ncnc3nc[nH]c23)c1 [Compound 3, 6-(2-amino-5-methylbenzylamino)purine] | – | –
n.i | n.i. | – | CCc1ccc(O)c(CNc2ncnc3nc[nH]c23)c1 [Compound 13, 6-(2-hydroxy-5-ethylbenzylamino)purine] | – | –
n.i | n.i. | – | Cc1ccc([N+](=O)[O-])c(CNc2ncnc3nc[nH]c23)c1 [Compound 16, 6-(2-nitro-5-methylbenzylamino)purine] | – | –
n.i | n.i. | – | CCc1cccc(CNc2ncnc3nc[nH]c23)c1[N+](=O)[O-] [Compound 17, 6-(2-nitro-3-ethylbenzylamino)purine] | – | –
n.i | n.i. | – | Cc1cc(C)c(N)c(CNc2ncnc3nc[nH]c23)c1 [Compound 21, 6-(2-amino-3,5-dimethylbenzylamino)purine] | – | –

Source: patent publication US20100240537A1, “Substituted 6-(alkylbenzylamino)purine derivatives for use as cytokinin receptor antagonists and preparations containing these derivatives” (priority 2007, published 2010)
